# Assay results: article PMC8864869, “A short peptide derived from pigment epithelial-derived factor exhibits an angioinhibitory effect” (BMC Ophthalmology, 2022)
# “And” between values parts separate entries of the source, which are not always exact repeats. Equal values may be shown once.
# Key:
# Assay type in all cases: cell-based, human
# RPMI8226 cells [1] = system: RPMI8226 cells
# Procedure: Human multiple myeloma cells, RPMI8226 were purchased from Bioresource Collection and Research Center (Hsinchu, Taiwan). Cells were cultivated in RPMI1640 medium supplemented with 10% FBS, 50 μg/ml penicillin, 50 μg/ml streptomycin, and 2 mM L-glutamine at 37 °C in a 5% CO2 atmosphere. Cell viability was determined by an MTT assay. […] MTT stock solution added to medium alone was included as a negative control. Aliquots (450 μl) from each sample were transferred to a new well of a 48-well culture plate, 100 μl DMSO added with thorough mixing, and allowed to react at 37 °C for 20 min before reading the absorbance at 570 nm.
# RPMI8226 cells [2] = test: Annexin V-FITC/PI double-staining apoptosis assay in RPMI8226 cells; settings: 10 ng/ml VEGF + 25 μM peptide, 24 h, serum-free; early + late apoptosis; mean ± SD, three independent experiments
# Procedure: Cell apoptosis was examined using a TACS annexin V-FITC kit according to the manufacturer’s instructions for in situ staining. The cell numbers were monitored by counterstaining with Hoechst 33342. Afterward, apoptosis was examined and photographed by a Zeiss epifluorescence microscope (× 100, 10 fields/sample). Images were recorded on Zeiss software.
# Fig. 2 The 34-mer and 7-mer induce apoptosis of RPMI8226 cells. a Fluorescence microscopy of annexin V-FITC/PI double staining. Treatment of RPMI8226 cells was as described in Fig. 1. Apoptosis was determined by annexin V-FITC staining (green dots) and double stained with propidium iodide (red dots). A representative of three independent experiments is shown. b The percentage of apoptotic cells was quantified by dividing the number of annexin V-positive cells by the total number of cells counted by phase-contrast light microscopy. Control peptide indicates cells were treated with the 5-mer. Histograms show means ± SD. ^aP < 0.005 versus peptide solvent-treated cells. ^bP < 0.0002 versus VEGF-treated cells. ^cP < 0.001 versus 34-mer-treated cells
# (§1) Fig. 3 The 7-mer induces JNK signaling to trigger RPMI8226 cell apoptosis. 3 × 10^5 cells were serum starved for 24 h and then exposed to 10 ng/ml VEGF and 25 μM 7-mer for the indicated time periods. a Western blotting was performed to detect the active phosphorylated forms of JNK (p-JNK) and p38 MAPK (p-p38), shown in the upper panels. Antibodies were then stripped and the blots were re-incubated with anti-JNK and anti-p38 MAPK antibodies (lower panels), respectively, to detect the levels of total JNK and p38 MAPK. b Densitometric analyses from three independent experiments are shown. c Cell were pretreated with 10 μM SP600125 or SB203580 for 10 min and then treated as described above for 24 h and apoptosis was quantified using the annexin V-FITC apoptosis detection kit. *P < 0.0001 versus 7-mer-treated cells
# JNK = test: Western blot of phosphorylated JNK in RPMI8226 cells; settings: 10 ng/ml VEGF + 25 μM 7-mer
# Text: Cell lysis and SDS–PAGE were as described previously. Antibodies used in this study were for active p38 MAPK and active JNK (Promega, Madison, WI), p38 MAPK/SAPK2, JNK (Upstate Biotechnology, Lake Placid, NY), p53 (Chemicon, Temecula, CA), bax, p21, cleaved caspase-3 and β-actin (Abcam Ltd., Cambridge, UK). Proteins of interest were detected using the appropriate IgG-horseradish peroxidase-linked secondary antibody (Santa Cruz Biotechnology) and enhanced chemiluminescence reagent (Amersham, Arlington Heights, IL). X-ray films were scanned on a model GS-700 Imaging Densitometer (Bio-Rad, Hercules, CA) and analyzed with Labworks 4.0 software. For quantification, blots from at least three independent experiments were used.
# as §1
substance,measurement,setting,value
"7-mer: PEDF Asp64-Ser70, N-acetylated, C-amidated (Ac-DLYRVRS-NH2; UniProt P36955 64-70, looked up, fragment)",cytotoxic effect on RPMI8226 cells in the absence of VEGF,RPMI8226 cells [1],neither peptide had a significant cytotoxic effect
same,"MTT value, VEGF-induced RPMI8226 cell proliferation, 1 μM peptide","RPMI8226 cells [1]; 10 ng/ml VEGF + 1 μM peptide (lowest concentration), 24 h, mean ± SD",101 ± 1.2%
same,anti-VEGF activity of the 7-mer relative to the 34-mer (MTT),"RPMI8226 cells [1]; 10 ng/ml VEGF + 25 μM peptide, 24 h",~ 1.5 fold
same,"MTT value, VEGF-induced RPMI8226 cell proliferation","RPMI8226 cells [1]; 10 ng/ml VEGF + 25 μM peptide, 24 h, serum-free medium, solvent-treated/untreated cells set as 100%, mean ± SD, three independent experiments",58 ± 4.1% and 57.3% and 54 ± 1.5%
same,dose dependence of cell viability of VEGF-treated RPMI8226 cells,"RPMI8226 cells [1]; 1, 5, 10 and 25 μM peptide with VEGF, MTT",decreased cell viability in a dose-dependent manner
same,apoptotic (annexin V+) RPMI8226 cells,RPMI8226 cells [2],38.6 ± 2.1%
same,time for which JNK phosphorylation was sustained,JNK,up to 10 h
same,time of peak p-p46 JNK,JNK,2 h
same,p-p46 JNK phosphorylation,JNK; time course,increase in p-p46 JNK was detected 20 min after 7-mer treatment
